For the first experiment, the target named is T1, histamine-(H1)-receptor (Cavia porcellus, UniProt P31389).
T1 construct: Segments of the ileum 1.5 cm long from Dunkin Hartley guinea pigs; from tissue; host or cells: isolated ileum of Dunkin Hartley guinea pigs
T1 sequence (P31389 whole entry): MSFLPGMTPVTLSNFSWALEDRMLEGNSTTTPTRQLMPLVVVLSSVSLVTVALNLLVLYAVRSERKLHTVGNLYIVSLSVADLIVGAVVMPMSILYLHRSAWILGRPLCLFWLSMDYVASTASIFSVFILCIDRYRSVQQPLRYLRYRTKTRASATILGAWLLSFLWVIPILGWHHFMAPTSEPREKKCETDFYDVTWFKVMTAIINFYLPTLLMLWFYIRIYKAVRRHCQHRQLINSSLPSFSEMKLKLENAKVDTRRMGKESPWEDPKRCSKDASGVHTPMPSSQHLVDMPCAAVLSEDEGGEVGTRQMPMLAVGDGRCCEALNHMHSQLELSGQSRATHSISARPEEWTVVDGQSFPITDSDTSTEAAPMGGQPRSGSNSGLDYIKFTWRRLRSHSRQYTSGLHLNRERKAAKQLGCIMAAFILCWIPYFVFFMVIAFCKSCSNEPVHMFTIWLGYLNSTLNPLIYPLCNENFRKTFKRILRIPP
Briefly: Histamine-(H1)-receptor antagonism in vitro, histamine-induced contractions of isolated ileum. The format is cell-based, guinea pig (Dunkin Hartley). Particulars: 0.5 min; test substance 10^-6 mole/l, histamine 5 × 10^-6 mole/l, after 30 seconds; read-out: % inhibition of histamine-induced ileum contractions after 30 seconds. Here is the method: 3. Investigation of Anti-Histamine-(H1) Effect Based on Histamine-(H1)-Receptor Antagonism In Vitro
To investigate the histamine-(H1)-receptor antagonism of the test substances, the inhibiting effect of the substances on histamine-induced contractions of the smooth muscle was determined in vitro on the isolated organ. Isolated strips of organ from the ileum are suitable for this purpose. In an organ bath of physiological saline solution the smooth muscle strips react to the addition of histamine by contracting. […] The extent of regression of the contraction is an indication of the anti-histamine-(H1) activity of the compounds. The investigation was carried out analogously to the method originally described by Magnus (Pfluegers Arch. 102, 123 (1904)).
Procedure for determining the smooth muscle contraction inhibiting effect on isolated guinea pig ileum induced by a 5×10^-6 molar histamine concentration
Segments of the ileum 1.5 cm long from Dunkin Hartley guinea pigs having a body weight of 300 500 g were used for the test. Each strip was placed in an organ bath of 10 ml of physiological saline solution according to Krebs-Henseleit and attached to a conventional apparatus for isotonic measurement of changes in length of the ileum strips (automated Celaster measuring apparatus), so that the tissue was under 1 g of tension. The bath was kept at a pH of 7.4 and gassed with a mixture of 5% CO2 and 95% O2. After an equilibration phase, an isotonic contraction of the tissue was induced by adding histamine in a final concentration of 5×10^-6 mole/liter and washing it out again after a contact time of 30 seconds. Only tissues samples from which three reproducible contractions were obtained at 10 minute intervals were used in the subsequent test. The test substances were then added in a final concentration of 10^-6 mole/liter, and after 30 seconds contact time histamine was again added up to a concentration of 5×10^-6 mole/liter. The resulting contractions were measured over 30 seconds. The tissue was then washed several times over a period of 10 minutes. Histamine was then added again to stimulate a contraction. The resulting contractions were again measured over 30 seconds. The difference between the amplitude of the contraction obtained by histamine addition alone and the amplitude of the contraction obtained in the presence of the test substance was determined and expressed in terms of % inhibition.
The inhibiting effects on the contractions induced by histamine 30 seconds after administration of the test substance and on the contractions induced by the addition of histamine 10 minutes later are listed in the table.
As to `Cc1ccnc(N2CCN(CCCCC3Oc4ccccc4NC3=O)CC2)c1` (stereo not drawn) [Example 7], the inhibition (commonly the drop in the measured response relative to a control, in per cent) at 1 µM was determined as 85%.

Turning to `Cc1ccnc(N2CCN(CCCC3Sc4ccccc4NC3=O)CC2)c1` (stereo not drawn) [Example 8], the inhibition at 1 µM was 42%.

For `Cc1ccnc(N2CCN(CCCC3Sc4ccccc4NC3=S)CC2)c1` (stereo not drawn) [Example 11], the inhibition at 1 µM stood at 32%.

The same experiment, now with this note: 10 min; test substance 10^-6 mole/l, histamine 5 × 10^-6 mole/l, after 10 minutes (after washing); read-out: % inhibition of histamine-induced ileum contractions after 10 minutes.
For `Cc1ccnc(N2CCN(CCCCC3Oc4ccccc4NC3=O)CC2)c1` (stereo not drawn) [Example 7], the inhibition at 1 µM was 74%.

Turning to `Cc1ccnc(N2CCN(CCCC3Sc4ccccc4NC3=O)CC2)c1` (stereo not drawn) [Example 8], the inhibition at 1 µM was determined as 5%.

In the case of `Cc1ccnc(N2CCN(CCCC3Sc4ccccc4NC3=S)CC2)c1` (stereo not drawn) [Example 11], the inhibition at 1 µM is 35%.

The next experiment concerns passive cutaneous anaphylaxis (PCA). Briefly: Inhibition of passive cutaneous anaphylaxis (PCA) in rats. The format is in vivo, Sprague-Dawley rats. Particulars: Rattus norvegicus, 1 h, 2 × 10^-5 mole/kg per os, one hour before ovalbumin challenge. Here is the method: (§1) 1. Determining Inhibition of Passive Cutaneous Anaphylaxis (PCA) and Histamine-Induced Anaphylactoid Cutaneous Reaction
The PCA reaction is carried out following the methods described by Goose et al. (J. N. Immunology 16 (1969), 749) and by Martin et al. (Arch. Pharmacol. 316 (1981), 186).
The IgE-rich ovalbumin antiserum used in the test was obtained from immunized Brown-Norway rats. The were immunized with an intraperitoneal injection of a mixture of 100 μg of ovalbumin with a Bordetella pertussis suspension (Vaxicoq™, Manufactured by Institute Merieux, containing 5×10^9 organisms and 1.25 mg Al(OH)3). After 20 days the animals were re-immunized with a further intraperitoneal injection of a solution of 10 μg ovalbumin in 0.5 ml physiological saline solution. After a further four days the blood was removed from the animals and centrifuged. The resulting antiserum was stored at -20° C. until use.
(§2) The inhibition of the passive cutaneous anaphylaxis and of the anaphylactoid cutaneous reaction induced by histamine was determined as follows:
(§3) Sprague-Dawley rats having a body weight of 150-180 g were injected intradermally in one flank with 50 μl of a 1:75 dilution of the IgE-rich ovalbumin antiserum in physiological saline solution to passively sensitize them to ovalbumin.
(§4) 24 hours after sensitization a solution of 8.25 mg/kg of ovalbumin and 26.4 mg/kg of a blue dye (Evans's Blue) was administered to the rats intravenously according to Martin et al. to trigger passive cutaneous anaphylaxis.
(§5) On the day of the experiment the test substances were dissolved in distilled water which contained 1 vol. % dimethylformamide and 1 vol. % of Tween™ 20 (=polyoxyethylene (20) sorbitan monolaurate). One hour before administration of the ovalbumin challenge, each animal was orally administered 2×10^-5 mole/kg of test substance in 0.5 ml of solution. For comparison purposes a control group received only the solvent.
(§6) The edematous anaphylactic (PCA) and anaphylactoid (histamine-induced) reactions caused by the stimulation of the intravenous ovalbumin injection, which manifested themselves by edema formation, swelling and exudation of blue dye, were evaluated 30 minutes after their initiation by the intravenous ovalbumin injection. This was done by visually determining the extent to which the blue dye emerged at the sites of edema formation. The percentage inhibition of anaphylactic and anaphylactoid reactions induced by the test substances in comparison with the reactions of the control animals not treated with any test substance was determined using comparison scales.
(§7) The results obtained using compounds of formula I according to the foregoing test methods are shown in the following Table A. The example numbers given for the compounds of formula I relate to the subsequent preparative examples.
For `Cc1ccnc(N2CCN(CCCCC3Sc4ccccc4NC3=O)CC2)c1` (stereo not drawn) [Example 1, 2-{4-[4-(4-methylpyridin-2-yl)-piperazin-1-yl]butyl}-2H-1,4-benzothiazine-3(4H)-one], the inhibition in vivo (as a rule, the percentage by which the read-out fell short of the control) at 20 µmol/kg was determined as 88%.

Compound `Cc1ccnc(N2CCN(CCCCC3Oc4ccccc4NC3=O)CC2)c1` (stereo not drawn) [Example 7] yielded an inhibition in vivo at 20 µmol/kg of 70%.

For the compound `Cc1ccnc(N2CCN(CCCC3Sc4ccccc4NC3=O)CC2)c1` (stereo not drawn) [Example 8], the inhibition in vivo at 20 µmol/kg was 73%.

For the compound `Cc1ccnc(N2CCN(CCCC3Oc4ccccc4NC3=O)CC2)c1` (stereo not drawn) [Example 9], the inhibition in vivo at 20 µmol/kg was determined as 60%.

`Cc1ccnc(N2CCN(CCCC3Sc4ccccc4NC3=S)CC2)c1` (stereo not drawn) [Example 11] returned an inhibition in vivo at 20 µmol/kg of 55%.

With `O=C1Nc2ccccc2SC1CCCN1CCN(c2ccc(Cl)cn2)CC1` (stereo not drawn) [Example 15], the inhibition in vivo at 20 µmol/kg is 60%.

For a further experiment, the system named is histamine-induced anaphylactoid cutaneous reaction. As to the kind of experiment: Inhibition of histamine-induced anaphylactoid cutaneous reaction in rats. Particulars: Rattus norvegicus, 1 h, 2 × 10^-5 mole/kg per os, one hour before ovalbumin challenge. The format is in vivo, Sprague-Dawley rats. As to the method: as §1, §2, §3, §4
To determine the histamine-induced anaphylactoid skin reaction, the animals are injected intradermally in the flank opposite to the antiserum administration with 50 μl of a physiological saline solution containing 0.8 mg/ml histamine directly before the intravenous injection of the solution containing the ovalbumin and the blue dye.
as §5, §6, §7
In turn, `Cc1ccnc(N2CCN(CCCCC3Sc4ccccc4NC3=O)CC2)c1` (stereo not drawn) [Example 1, 2-{4-[4-(4-methylpyridin-2-yl)-piperazin-1-yl]butyl}-2H-1,4-benzothiazine-3(4H)-one] displayed an inhibition in vivo at 20 µmol/kg of 55%.

Regarding `Cc1ccnc(N2CCN(CCCCC3Oc4ccccc4NC3=O)CC2)c1` (stereo not drawn) [Example 7], the inhibition in vivo at 20 µmol/kg was 40%.

As to `Cc1ccnc(N2CCN(CCCC3Sc4ccccc4NC3=O)CC2)c1` (stereo not drawn) [Example 8], the inhibition in vivo at 20 µmol/kg was determined as 60%.

For the compound `Cc1ccnc(N2CCN(CCCC3Oc4ccccc4NC3=O)CC2)c1` (stereo not drawn) [Example 9], the inhibition in vivo at 20 µmol/kg stood at 30%.

As to `Cc1ccnc(N2CCN(CCCC3Sc4ccccc4NC3=S)CC2)c1` (stereo not drawn) [Example 11], the inhibition in vivo at 20 µmol/kg came out at 20%.

In turn, `O=C1Nc2ccccc2SC1CCCN1CCN(c2ccc(Cl)cn2)CC1` (stereo not drawn) [Example 15] gave an inhibition in vivo at 20 µmol/kg of 30%.
